According to ChEMBL document CHEMBL3785013, “Novel morpholinoquinoline nucleus clubbed with pyrazoline scaffolds: Synthesis, antibacterial, antitubercular and antimalarial activities” (Eur J Med Chem, 2016):
In brackets after ≈: the same amount, converted by molar mass.

How the values were obtained:
Escherichia coli = test: Antibacterial activity against Escherichia coli MTCC 443 after 24 to 48 hrs by broth microdilution method; assay type: functional
Salmonella typhi = test: Antibacterial activity against Salmonella typhi MTCC 98 after 24 to 48 hrs by broth microdilution method; assay type: functional, Salmonella enterica subsp. enterica serovar Typhi; settings: Salmonella enterica
Streptococcus pneumoniae = test: Antibacterial activity against Streptococcus pneumoniae MTCC 1936 after 24 to 48 hrs by broth microdilution method; assay type: functional
Bacillus subtilis = test: Antibacterial activity against Bacillus subtilis MTCC 441 after 24 to 48 hrs by broth microdilution method; assay type: functional
Vibrio cholerae = test: Antibacterial activity against Vibrio cholerae MTCC 3906 after 24 to 48 hrs by broth microdilution method; assay type: functional
Clostridium tetani = test: Antibacterial activity against Clostridium tetani MTCC 449 after 24 to 48 hrs by broth microdilution method; assay type: functional
[1] = system: Schizosaccharomyces pombe; test: Cytotoxicity against Schizosaccharomyces pombe at 2.5 to 12.5 ug/ml after 17 hrs by trypan blue exclusion method; assay type: organism-based; settings: in vivo
Plasmodium falciparum = test: Antimalarial activity against Plasmodium falciparum after 48 hrs; assay type: functional, organism-based
Candida albicans = test: Antifungal activity against Candida albicans MTCC 227 after 24 to 48 hrs by broth microdilution method; assay type: functional
Aspergillus fumigatus = test: Antifungal activity against Aspergillus fumigatus MTCC 3008 after 24 to 48 hrs by broth microdilution method; assay type: functional
[2] = system: Mycobacterium tuberculosis; test: Antituberculosis activity against Mycobacterium tuberculosis H37Rv at 250 ug/ml incubated for 24 hrs measured after 2 to 4 weeks by Lowensteine-Jensen method; assay type: functional
[3] = system: Mycobacterium tuberculosis; test: Antituberculosis activity against Mycobacterium tuberculosis H37Rv after 2 to 4 weeks by Lowensteine-Jensen method; assay type: functional

Molecule | MIC (Escherichia coli) [µM] | MIC (Salmonella typhi) [µM] | MIC (Streptococcus pneumoniae) [µM] | MIC (Bacillus subtilis) [µM] | MIC (Vibrio cholerae) [µM] | MIC (Clostridium tetani) [µM] | Activity [1] | IC50 (Plasmodium falciparum) [nM] | MIC (Candida albicans) [µM] | MIC (Aspergillus fumigatus) [µM] | inhibition at 250 µg/mL [2] [%] | MIC [3] [µM]
O=C(O)c1cn(C2CC2)c2cc(N3CCNCC3)c(F)cc2c1=O [CIPROFLOXACIN] | 75 (≈ 24.9 µg/mL) | 75 (≈ 24.9 µg/mL) | 150 (≈ 49.7 µg/mL) | 150 (≈ 49.7 µg/mL) | 75 (≈ 24.9 µg/mL) | – | – | – | – | – | – | –
COc1ccc(C2=NN(C(C)=O)C(c3cc4ccccc4nc3N3CCOCC3)C2)cc1 (stereo not drawn) | 232 (≈ 99.9 µg/mL) | 1160 (≈ 500 µg/mL) | 145 (≈ 62.4 µg/mL) | 232 (≈ 99.9 µg/mL) | 1160 (≈ 500 µg/mL) | 1160 (≈ 500 µg/mL) | Toxic | 34 | 2320 (≈ 1000 µg/mL) | 1160 (≈ 500 µg/mL) | 45 | –
Fc1ccc(N2N=C(c3ccc(Br)cc3)CC2c2cc3ccccc3nc2N2CCOCC2)cc1 (stereo not drawn) | 117 (≈ 62.2 µg/mL) | 376 (≈ 200 µg/mL) | 188 (≈ 99.9 µg/mL) | 940 (≈ 500 µg/mL) | 470 (≈ 250 µg/mL) | 188 (≈ 99.9 µg/mL) | Non-toxic | 15 | 470 (≈ 250 µg/mL) | 940 (≈ 500 µg/mL) | 95 | 47 (≈ 25 µg/mL)
O=CN1N=C(c2ccc(Cl)cc2)CC1c1cc2ccccc2nc1N1CCOCC1 (stereo not drawn) | 237 (≈ 99.8 µg/mL) | 1190 (≈ 500 µg/mL) | 148 (≈ 62.3 µg/mL) | 1190 (≈ 500 µg/mL) | 237 (≈ 99.8 µg/mL) | 475 (≈ 200 µg/mL) | Toxic | 28 | 2380 (≈ 1000 µg/mL) | > 2380 | 94 | 59 (≈ 24.8 µg/mL)
CCn1cc(C(=O)O)c(=O)c2cc(F)c(N3CCNCC3)cc21 [NORFLOXACIN] | 31 (≈ 9.9 µg/mL) | 31 (≈ 9.9 µg/mL) | 31 (≈ 9.9 µg/mL) | 310 (≈ 99 µg/mL) | 31 (≈ 9.9 µg/mL) | 313 (≈ 100 µg/mL) | – | – | – | – | – | –
C=C[C@H]1CN2CC[C@H]1C[C@H]2[C@H](O)c1ccnc2ccc(OC)cc12 [QUININE] | – | – | – | – | – | – | – | 826 | – | – | – | –
NC(=S)N1N=C(c2ccc(Br)cc2)CC1c1cc2ccccc2nc1N1CCOCC1 (stereo not drawn) | 201 (≈ 99.8 µg/mL) | 402 (≈ 200 µg/mL) | 402 (≈ 200 µg/mL) | 402 (≈ 200 µg/mL) | 201 (≈ 99.8 µg/mL) | 201 (≈ 99.8 µg/mL) | Non-toxic | 44 | > 2010 | 1010 (≈ 500 µg/mL) | 90 | 201 (≈ 99.8 µg/mL)
O=C(N[C@H](CO)[C@H](O)c1ccc([N+](=O)[O-])cc1)C(Cl)Cl [CHLORAMPHENICOL] | 154 (≈ 49.8 µg/mL) | 154 (≈ 49.8 µg/mL) | 154 (≈ 49.8 µg/mL) | 154 (≈ 49.8 µg/mL) | 154 (≈ 49.8 µg/mL) | 154 (≈ 49.8 µg/mL) | – | – | – | – | – | –
CC(=O)N1N=C(c2ccc(Cl)cc2)CC1c1cc2ccccc2nc1N1CCOCC1 (stereo not drawn) | 229 (≈ 99.6 µg/mL) | 574 (≈ 250 µg/mL) | 1150 (≈ 500 µg/mL) | 229 (≈ 99.6 µg/mL) | 229 (≈ 99.6 µg/mL) | 149 (≈ 64.8 µg/mL) | – | 2870 | 1150 (≈ 500 µg/mL) | 1150 (≈ 500 µg/mL) | 96 | 143 (≈ 62.2 µg/mL)
NC(=S)N1N=C(c2ccc(Cl)cc2)CC1c1cc2ccccc2nc1N1CCOCC1 (stereo not drawn) | 442 (≈ 200 µg/mL) | 553 (≈ 250 µg/mL) | 553 (≈ 250 µg/mL) | 221 (≈ 99.9 µg/mL) | 221 (≈ 99.9 µg/mL) | 221 (≈ 99.9 µg/mL) | – | 4650 | 2210 (≈ 1000 µg/mL) | 221 (≈ 99.9 µg/mL) | 45 | –
NYSTATIN | – | – | – | – | – | – | – | – | 107 | 107 | – | –
COc1ccc(C2=NN(C(N)=S)C(c3cc4ccccc4nc3N3CCOCC3)C2)cc1 (stereo not drawn) | 558 (≈ 250 µg/mL) | 223 (≈ 99.8 µg/mL) | 223 (≈ 99.8 µg/mL) | 446 (≈ 200 µg/mL) | 558 (≈ 250 µg/mL) | 446 (≈ 200 µg/mL) | – | 3240 | 1120 (≈ 500 µg/mL) | 223 (≈ 99.8 µg/mL) | 63 | –
Fc1ccc(C2=NN(c3ccc(F)cc3)C(c3cc4ccccc4nc3N3CCOCC3)C2)cc1 (stereo not drawn) | 265 (≈ 125 µg/mL) | 212 (≈ 99.8 µg/mL) | 265 (≈ 125 µg/mL) | 212 (≈ 99.8 µg/mL) | 132 (≈ 62.1 µg/mL) | 132 (≈ 62.1 µg/mL) | – | 3420 | 212 (≈ 99.8 µg/mL) | 2120 (≈ 1000 µg/mL) | 48 | –
O=CN1N=C(c2ccc(F)cc2)CC1c1cc2ccccc2nc1N1CCOCC1 (stereo not drawn) | 494 (≈ 200 µg/mL) | 1240 (≈ 500 µg/mL) | 247 (≈ 99.9 µg/mL) | 154 (≈ 62.3 µg/mL) | 618 (≈ 250 µg/mL) | 1240 (≈ 500 µg/mL) | – | 1040 | 2470 (≈ 1000 µg/mL) | > 2470 | 93 | 247 (≈ 99.9 µg/mL)
COc1ccc(C2=NN(c3ccc(F)cc3)C(c3cc4ccccc4nc3N3CCOCC3)C2)cc1 (stereo not drawn) | 414 (≈ 200 µg/mL) | 207 (≈ 99.9 µg/mL) | 259 (≈ 125 µg/mL) | 518 (≈ 250 µg/mL) | 518 (≈ 250 µg/mL) | 1040 (≈ 500 µg/mL) | Non-toxic | 51 | 518 (≈ 250 µg/mL) | 207 (≈ 99.9 µg/mL) | 33 | –
COC1=CC(=O)C[C@@H](C)[C@]12Oc1c(Cl)c(OC)cc(OC)c1C2=O [GRISEOFULVIN] | – | – | – | – | – | – | – | – | 1150 (≈ 405 µg/mL) | 283 (≈ 99.8 µg/mL) | – | –
CC1(C)S[C@@H]2[C@H](NC(=O)[C@H](N)c3ccccc3)C(=O)N2[C@H]1C(=O)O [AMPICILLIN] | 286 (≈ 99.9 µg/mL) | 286 (≈ 99.9 µg/mL) | 286 (≈ 99.9 µg/mL) | 715 (≈ 250 µg/mL) | 286 (≈ 99.9 µg/mL) | 715 (≈ 250 µg/mL) | – | – | – | – | – | –
NC(=S)N1N=C(c2ccc(F)cc2)CC1c1cc2ccccc2nc1N1CCOCC1 (stereo not drawn) | 574 (≈ 250 µg/mL) | 143 (≈ 62.3 µg/mL) | 229 (≈ 99.7 µg/mL) | 1150 (≈ 500 µg/mL) | 574 (≈ 250 µg/mL) | 1150 (≈ 500 µg/mL) | – | 1840 | 229 (≈ 99.7 µg/mL) | 1150 (≈ 500 µg/mL) | 54 | –
Fc1ccc(N2N=C(c3ccc(Cl)cc3)CC2c2cc3ccccc3nc2N2CCOCC2)cc1 (stereo not drawn) | 205 (≈ 99.8 µg/mL) | 410 (≈ 200 µg/mL) | 1030 (≈ 500 µg/mL) | 410 (≈ 200 µg/mL) | 513 (≈ 250 µg/mL) | 1030 (≈ 500 µg/mL) | – | 1790 | 2050 (≈ 1000 µg/mL) | 205 (≈ 99.8 µg/mL) | 24 | –
COc1ccc(C2=NN(C=O)C(c3cc4ccccc4nc3N3CCOCC3)C2)cc1 (stereo not drawn) | 480 (≈ 200 µg/mL) | 240 (≈ 100 µg/mL) | 240 (≈ 100 µg/mL) | 600 (≈ 250 µg/mL) | 480 (≈ 200 µg/mL) | 1200 (≈ 500 µg/mL) | – | 1870 | 1200 (≈ 500 µg/mL) | 2400 (≈ 1000 µg/mL) | 36 | –
CO[C@H]1/C=C/O[C@@]2(C)Oc3c(C)c(O)c4c(O)c(c(/C=N/N5CCN(C)CC5)c(O)c4c3C2=O)NC(=O)/C(C)=C\C=C\[C@H](C)[C@H](O)[C@@H](C)[C@@H](O)[C@@H](C)[C@H](OC(C)=O)[C@@H]1C [RIFAMPIN] | – | – | – | – | – | – | – | – | – | – | 98 | 48 (≈ 39.5 µg/mL)
NNC(=O)c1ccncc1 [ISONIAZID] | – | – | – | – | – | – | – | – | – | – | – | 1 (≈ 0.137 µg/mL)
O=CN1N=C(c2ccc(Br)cc2)CC1c1cc2ccccc2nc1N1CCOCC1 (stereo not drawn) | 214 (≈ 99.6 µg/mL) | 134 (≈ 62.4 µg/mL) | 537 (≈ 250 µg/mL) | 214 (≈ 99.6 µg/mL) | 214 (≈ 99.6 µg/mL) | 429 (≈ 200 µg/mL) | Non-toxic | 40 | 537 (≈ 250 µg/mL) | 1070 (≈ 500 µg/mL) | 32 | –
CC(=O)N1N=C(c2ccc(F)cc2)CC1c1cc2ccccc2nc1N1CCOCC1 (stereo not drawn) | 597 (≈ 250 µg/mL) | 238 (≈ 99.6 µg/mL) | 238 (≈ 99.6 µg/mL) | 597 (≈ 250 µg/mL) | 597 (≈ 250 µg/mL) | 238 (≈ 99.6 µg/mL) | – | 1670 | 597 (≈ 250 µg/mL) | 1190 (≈ 500 µg/mL) | 32 | –
CC(=O)N1N=C(c2ccc(Br)cc2)CC1c1cc2ccccc2nc1N1CCOCC1 (stereo not drawn) | 521 (≈ 250 µg/mL) | 1040 (≈ 500 µg/mL) | 417 (≈ 200 µg/mL) | 1040 (≈ 500 µg/mL) | 1040 (≈ 500 µg/mL) | 208 (≈ 99.7 µg/mL) | Toxic | 18 | 2090 (≈ 1000 µg/mL) | 208 (≈ 99.7 µg/mL) | 29 | –
